Laboratory results as given in patent publication US12552732B2, “Cyclopropanated sandalwood type compounds” (Symrise AG, priority 2020, dated 2026).

Assays:
[1] = Chemical stability in citric acid-based cleaner pH 2 (SPME GC-MS); format: physicochemical; settings: for acid-stability compared with Javanol: 0.3% in citric acid-based cleaner pH 2, 14 days, 6, 22, 40 and 50 °C, versus fresh sample
Method: In order to analyse the stability of the inventive compounds, different samples each containing 0.3% of either compound 3a, compound 3b or Javanol® (Givaudan), respectively, in a citric acid-based cleaner having a pH of 2 were analysed, i.e., the stability test was carried out using a representative acidic cleaner (pH=2) in which the corresponding fragrance compounds were incorporated in an amount of 0.3% relative to the acidic cleaner.
The stability was analysed via solid-phase microextraction (SPME) and coupled gas chromatography-mass spectrometry (GC-MS) by using a combination of polydimethylsiloxane and divinylbenzene as SPME fibre coating (PDMS/DVB fibre) and a polydimethylsiloxane-based DB-1 column for gas chromatography (100% polydimethylsiloxane) for each sample containing one of the fragrance compounds as indicated above. The stability was tested for various samples after 14 days of acidic treatment at different storage temperatures (6° C., 22° C., 40° C. and 50° C.) in comparison to a freshly prepared sample as reference (see FIGURE).

[2] = Odour detection threshold (ODT), olfactometer TO8, expert panel, DIN EN 13725; settings: for ODT (odour detection threshold): olfactometer TO8, panel of at least four experts
Excerpt: The odour detection threshold is defined as the lowest concentration of a certain odorous compound (gaseous and sensorially active substance) which is perceivable and thus which can be distinguished with certainty from a blank reference under standard conditions. Generally, lower ODT values are preferred as a lower amount of the corresponding fragrance compound is required in order to a achieve an intense odour impressions and thus overall lower amounts can be used for perfuming. However, as the threshold depends on various factors such as concentration, solubility, partition coefficient between air and the olfactory active substance, vapor pressure and the like, predictions referring to the ODT of a substance, i.e. a fragrance material are difficult to make. The ODT was measured using an olfactometer TO8 and a panel of at least four experts according to DIN standard EN 13725.

| acid-stability at 22 °C ([1]; 0.3% in citric acid-based cleaner pH 2, 14 days, 22 °C) | decomposition at 50 °C ([1]; 0.3% in citric acid-based cleaner pH 2, 14 days, 50 °C) | Compound | acid-stability compared with Javanol [1] | ODT (odour detection threshold) [2] | factor by which threshold value is lower than Javanol ([2]; ODT compared with Javanol (Givaudan)) | decomposition at moderate temperatures ([1]; 0.3% in citric acid-based cleaner pH 2, 14 days, moderate temperatures) | chemical stability under acidic conditions ([1]; acidic conditions, general statement) |
| --- | --- | --- | --- | --- | --- | --- | --- |
| Best stabilities | – | CCC(CO)C1CC1C1CC2CC2(C)C1(C)C (stereo not shown) [Compound 3a, 2-[2-(1,2,2-trimethyl-3-bicyclo[3.1.0]hexanyl)cyclopropyl]butan-1-ol] | better acid-stability over the whole temperature range | 0.000244 ppm (v/v) | – | – | – |
| – | – | CC(CO)C1CC1C1CC2CC2(C)C1(C)C (stereo not shown) [Compound 3b, 2-[2-(1,2,2-trimethyl-3-bicyclo[3.1.0]hexanyl)cyclo-propyl]propan-1-ol] | better acid-stability over the whole temperature range | 0.0000165 ppm (v/v) | about 6.5 | – | – |
| – | fully decomposes | CC1(CO)CC1CC1CC2CC2(C)C1(C)C (stereo not shown) [Javanol®, [1-methyl-2-[(1,2,2-trimethyl-3-bicyclo[3.1.0]hexanyl)methyl]cyclo-propyl]methanol, reference compound] | – | 0.000104 ppm (v/v) | – | seems to decompose quickly even at moderate temperatures | not chemically stable under acidic conditions |
